{
  "source": "patent US10314870B2",
  "about": "“Tropism modified cancer terminator virus (Ad.5/3 CTV;AD.5/3-CTV-M7)” (priority 2012, dated 2019)",
  "key": {"[1]": {"test_system": "primary human GBM cells (GBM6, GBM12)", "assay": "Cell death by trypan blue exclusion in primary human GBM cells", "format": "cell-based", "description": "The pooled cell pellets were resuspended and mixed with trypan blue dye."}, "[2]": {"conditions": "cited from earlier work"}, "[3]": {"test_system": "MIA PaCa-2/luc xenografts", "assay": "MIA PaCa-2/luc xenografts on both flanks, Ad/MB by tail vein with UTMD on left tumor", "format": "in vivo, nude mice", "conditions": "POH 75 mg/kg i.p. daily; Ad.5-vec+POH compared to Ad.5/3-vec", "procedure": "FIG. 11A-E. Ad.5/3-CTV-M7 in combination with POH completely eradicates primary and distant tumors in nude mice bearing human pancreatic tumor xenografts. Tumor xenografts generated from MIA-PaCa-2 cells stably expressing a luciferase gene (MIA PaCa-2-luc) were established in both the left and right flanks of nude mice. Tumors on the left flank were sonoporated for 10 min following tail-vein injection of the indicated complement treated Ad/MB complex, and treated as described in Materials and Methods section for 3 weeks starting from day 14 (1 injection/week). POH was administered i.p. daily for 4 weeks from day 1 of implantation of cells in nude mice. (A) Bioluminescence imaging (BLI) was performed using Xenogen In Vivo Imaging System (IVIS). BLI was performed every week and luminescence was quantified and tumor growth response curve of the left flank (B) and right flank or distant tumor (C) was plotted. (D) Secreted MDA-7/IL-24 in blood serum was measured using an MDA-7/IL-24 ELISA kit. (E) There was significant increase in ‘bystander’ effect of MDA-7/IL-24 in inhibiting in vivo tumor growth as measured by BLI. […]\nAthymic nude mice were injected s.c. in both flanks with 5×10^6 MIA PaCa-2/luc (a stable clone of MIA PaCa-2 cells containing integrated pGL-3/luc). […] Images were analyzed by Living Image software. […]"}, "[4]": {"test_system": "MIA PaCa-2 and BxPC-3 cells", "assay": "ROS formation, carboxy-H2DCFDA fluorescence", "format": "cell-based, human", "conditions": "200 μM", "procedure": "FIG. 14. Temporal kinetics of reactive oxygen species (ROS) formation induced by POH. MIA PaCa-2 and BxPC-3 cells were stained with carboxy-H2DCF-DA in PBS for 30 min followed by treatment of POH, and fluorescence was measured using a Flurometer with a green filter at the indicated time points. The readings noted were the difference between POH-treated group compared to untreated control.\nTo determine ROS production, cells were stained with 100 μl of 10 μM carboxy-H2DCFDA (Molecular Probes™, Invitrogen) in PBS for 30 min followed by treatment with Perillyl alcohol and fluorescence was measured with a Fluorometer using a green filter at the indicated time points."}, "[5]": {"test_system": "PDAC cell lines", "assay": "MTT cell viability assay in pancreatic cancer cell lines", "format": "cell-based, human", "conditions": "200 μM", "procedure": "FIGS. 13A-D. Cancer-specific oncolytic effects of CTV-M7 in pancreatic cancer cells. Pancreatic cancer cells were treated with non-replicating Ad.5-mda-7 or Ad.5/3-mda-7 as well as conditional replication-competent Ads (CRCA) i.e., Ad.5-CTV-M7 and Ad.5/3-CTV-M7 and MTT assays were performed after 3 days. IC50 was calculated using GraphPad Prism 5.0. Points; mean±S.E. of three different experiments each performed in quadruplicate.\nPancreatic cancer cell lines were infected with Ad in incomplete medium for 3 h followed by treatment with Perillyl alcohol (POH) (200 μM) in complete medium (10% FBS) for 72 h, and cell proliferation assays were performed at O.D. 560 nm using cell proliferation assays after adding 100 μl of 3-(4,5-dimethylthiazol-2-yl)-2,5-diphenyltetrazolium bromide (Sigma Aldrich) (MTT) dye (1 mg/ml) (Sigma-Aldrich)."}, "[6]": {"test_system": "GBM6 cells", "assay": "Autophagy, LC3-GFP vesicle formation", "format": "cell-based, human", "procedure": "FIG. 19A-D. Induction of ER stress and autophagy plays a role in the interaction between MDA-7/IL-24 and HDACIs. Panel A. GBM6 cells were transfected in quadruplicate with a plasmid to express an LC3 (ATG8)-GFP fusion protein and in parallel transfected with scrambled siRNA (siSCR) or an siRNA to knock down Beclin/expression. Twenty-four h after transfection cells were treated with GST or GST-MDA-7 (20 nM) and/or SBHA (3 μM). Cells (a representative of 40 per well per time point) were examined 6 h, 12 h and 24 h after treatment using an Axiovert microscope (x40) for the formation of punctate vesicles containing LC3-GFP. Data are plotted as the number of LC3-GFP vesicles per cell (n=-2, +/− SEM) (*p<0.05 greater than GST+VEH; **p<0.05 greater than GST-MDA-7+VEH). Panel B. GBM6 cells were transfected with scrambled siRNA (siSCR) or an siRNA to knock down Beclinl expression. Twenty-four h after transfection cells were treated with GST or GST-MDA-7 (20 nM) and/or SBHA (3 μM). Cells were isolated 48 h later and viability determined by trypan blue exclusion (n=3, +/− SEM) (#p<0.05 less than corresponding value in siSCR cells). Panel C. GBM6 cells were transfected with an empty vector control plasmid or a plasmid to express dominant negative PERK. […] Cells were isolated 6 h after exposure and the phosphorylation of PERK and eIF2α determined (representative n=2). […]"}, "[7]": {"test_system": "GBM6 cells", "assay": "Colony formation assay with Calcusyn analysis", "format": "cell-based, human", "conditions": "GBM cells", "procedure": "GBM6 cells were plated as single cells (500-2,500 per 60-mm dish, in sextuplicate). […] Forty-eight h later cells were washed free of drugs and colonies were permitted to form for 20 days. (n=3, +/−SEM). Using the Calcusyn for Windows program we calculated the fraction affected (Fa) and the Combination Index (CI). A CI value of less than 1.00 indicates a synergy of interaction."}},
  "data": [
    {"molecule": "CCOC(=O)C1=C(N)Oc2ccc(Br)cc2C1C(C#N)C(=O)OCC", "note": "(centres unmarked) [HA14-1]", "values": [
      {"measurement": "effect on lethality of Ad.5-mda-7", "setting": "[1]; GBM6, Ad.5-mda-7 moi 10, obatoclax 0-200 nM or HA14-1 0-10 μM, 24 h", "value": "enhanced the lethality of Ad.5-mda-7"}
    ]},
    {"molecule": "C=C(C)[C@@H]1CC=C(C(=O)O)CC1", "note": "[Perillic acid]", "values": [
      {"measurement": "plasma concentration associated with minimal toxicities", "setting": "[2]; plasma", "value": 500, "unit": "µM"}
    ]},
    {"molecule": "C=C(C)[C@@H]1CC=C(CO)CC1", "note": "[POH, perillyl alcohol]", "values": [
      {"measurement": "effect of the POH dose with empty vector on tumor growth", "setting": "[3]", "value": "non-toxic but therapeutically inactive"},
      {"measurement": "side effects", "setting": "[2]; POH 800-1600 mg/m^2/dose", "value": "minimal side effects"},
      {"measurement": "stability and detection in plasma", "setting": "[2]; plasma", "value": "very unstable and cannot be detected in plasma"},
      {"measurement": "ROS levels at 24 h", "setting": "[4]; 24 h", "value": "baseline levels"},
      {"measurement": "time of maximum ROS levels", "setting": "[4]; time course", "value": 6, "unit": "h"},
      {"measurement": "ROS induction", "setting": "[4]; wild type and mutant K-ras pancreatic cell lines", "value": "sufficient to induce significant amounts of ROS"},
      {"measurement": "lethality and proliferation of PDAC cell lines", "setting": "[5]", "value": "not lethal and does not affect proliferation"}
    ]},
    {"molecule": "O=C(CCCCCCC(=O)NO)NO", "note": "[SBHA, Suberohydroxamic acid]", "values": [
      {"measurement": "effect on MDA-7/IL-24 stimulated autophagy levels", "setting": "[6]; SBHA 3 μM with GST-MDA-7 20 nM", "value": "enhanced MDA-7/IL-24 stimulated autophagy levels"},
      {"measurement": "effect on lethality of MDA-7/IL-24", "setting": "[1]; GBM6, GBM12 infected with Ad.5-mda-7 moi 10, Na Valproate 0.3-1.0 mM, SBHA 0.3-5.0 μM, 48 h, dose-dependent", "value": "enhanced the lethality of MDA-7/IL-24"},
      {"measurement": "interaction with MDA-7/IL-24 protein in colony formation", "setting": "[7]", "value": "synergized"}
    ]},
    {"molecule": "CCCC(CCC)C(=O)[O-].[Na+]", "note": "[sodium valproate]", "values": [
      {"measurement": "interaction with MDA-7/IL-24 protein in colony formation", "setting": "[7]", "value": "synergized"}
    ]},
    {"molecule": "GST-MDA-7: bacterially synthesized GST-MDA-7 protein (protein) QEFHFGPCQVKGVVPQKLWEAFWAVKDTMQAQDNITSARLLQQEVLQNVSDAESCYLVHTLLEFYLKTVFKNYHNRTVEVRTLKSFSTLANNFVLIVSQLQPSQENEMFSIRDSAHRRFLLFRRAFKQLDVEAALTKALGEVDILLTWMQKFYKL", "values": [
      {"measurement": "autophagy (LC3-GFP vesicle) levels", "setting": "[6]; GST-MDA-7 20 nM, 6 h, 12 h, 24 h, time-dependent", "value": "increased autophagy"}
    ]}
  ]
}
